Experimental findings from US20040121965A1, “Method of treating resistant tumors” (Wyeth Holdings Corporation, priority 2002, published 2004) are described below.

Assay [1] relates to KB-8-5 (MDR1+). In words: Cell survival assay (SRB), KB-8-5 (MDR1+). The note with it: for IC50: Homo sapiens, MDR1, read-out: In vitro IC50 (nM) KB85.
Assay [2] deals with KB-V1 (MDR1++). In words: Cell survival assay (SRB), KB-V1 (MDR1++). The conditions noted are these: for IC50: Homo sapiens.
In assay [3] the test system is KB-3-1. As to the kind of experiment: Cell survival assay (SRB), KB-3-1. In kind it is cell-based, human. The note with it: Homo sapiens. An outline of the steps:
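Step 1: add serial compound dilutions to cells in duplicate. Step 2: incubate 3 days. Step 3: fix in 10% TCA for 1 hr at 4 °C, stain with 0.04% SRB for 10 min, wash in 1% acetic acid, solubilise in 10 mM Trizma Base, measure absorbance and derive the 50%-growth-inhibition concentration.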

The mark [4] stands for this setting: read-out: In vitro IC50 (nM) KBV1.
Where [5] appears, read: KB 3-1, KB-3-1 cells (paclitaxel-sensitive parent), read-out: In vitro IC50 (nM) KB-3-1.

Where two headings read alike, the source gives them in different places. A value given as a limit tells only on which side of the number the result lay.

By IC50 is commonly meant the concentration at which inhibition is half-maximal. For `CN[C@H](C(=O)N[C@H](C(=O)N(C)[C@@H](/C=C(\C)C(=O)O)C(C)C)C(C)(C)C)C(C)(C)c1ccccc1` [Example 157, N,β,β-trimethyl-L-phenylalanyl-N^1-[(1R,2E)-3-carboxy-1-isopropylbut-2-enyl]-N^1,3-dimethyl-L-valinamide], the “Ratio KB85/KB” value in assay [1] came out at 2.7. Moreover, the IC50 in assay [1] is 1650 nM; in assay [2] (setting [4]) it was over 3000 nM; in assay [3] (KB 3-1, read-out: In vitro IC50 (nM) KB-3-1), 605 nM. For the same compound, the “Ratio KBV1/KB” value in assay [2] is reported as 5.0.

In the case of `CN[C@H](C(=O)N[C@H](C(=O)N(C)[C@H](/C=C(\C)C(=O)O)C(C)C)C(C)(C)C)C(C)(C)c1ccc(/C=C/c2ccccc2)cc1` [Example 146, N,β,β-trimethyl-4-[(E)-2-phenylvinyl]-L-phenylalanyl-N^1-[(1S,2E)-3-carboxy-1-isopropylbut-2-enyl]-N^1,3-dimethyl-L-valinamide], the “Ratio KB85/KB” value in assay [1] amounted to 2.4. Besides, the IC50 in assay [1] stood at 3.1 nM; in assay [2] (setting [4]) it was 70 nM; in assay [3] (setting [5]) it was 1.3 nM. The “Ratio KBV1/KB” value in assay [2] is 53.8.

For the compound `CN[C@H](C(=O)N[C@H](C(=O)N(C)[C@H](/C=C(\C)C(=O)O)C(C)C)C(C)(C)C)C(C)(C)c1ccc(OC)cc1OC` [Example 59, 2-Methoxy-N,O,β,β-tetramethyl-L-tyrosyl-N^1-[(1S,2E)-3-carboxy-1-isopropyl-2-butenyl]-N^1,3-dimethyl-L-valinamide], the “Ratio KB85/KB” value in assay [1] stood at 5.5. The IC50 in assay [1] turned out to be 13.2 nM; in assay [2] (setting [4]), 1070 nM; in assay [3] (setting [5]) it was 2.4 nM. The “Ratio KBV1/KB” value in assay [2] was found to be 446.7.

Turning to `CCOC(=O)/C(C)=C/[C@H](C(C)C)N(C)C(=O)[C@@H](NC(=O)[C@@H](NC)C(C)(C)c1ccc(C)c(C)c1)C(C)(C)C` [Example 13a, N,β, β,3,4-Pentamethyl-L-phenylalanyl-N^1-[(1S,2E)4-ethoxy-1-isopropyl-3-methyl-4-oxo-2-butenyl]-N^1,3-dimethyl-L-valinamide], the “Ratio KB85/KB” value in assay [1] came to 24.0. In addition, the IC50 amounted to 219 nM in assay [1], 1740 nM in assay [2] (setting [4]) and 9.1 nM in assay [3] (setting [5]). Also, the “Ratio KBV1/KB” value in assay [2] worked out at 191.0.

With `CC(C)C[C@H](N)C(=O)N[C@H](C(=O)N[C@H](CC(C)C(=O)O)C(C)C)C(C)(C)C` (stereo partly drawn) [Example 138, (4R)4-[((2S)-2-{[(2S)-2-amino4-methylpentanoyl]amino}-3,3-dimethylbutanoyl)amino]-2,5-dimethylhexanoic Acid], the half-maximal inhibitory concentration (IC50) in assay [1] was 1510 nM; in assay [2] (setting [4]), at least 3000 nM; in assay [3] (KB-3-1 cells (paclitaxel-sensitive parent), read-out: In vitro IC50 (nM) KB-3-1), 692 nM. For the same compound, in assay [1] (ratio of IC50 in KB85 to IC50 in KB-3-1), the “Ratio KB85/KB” value is given as 2.2. Further, the “Ratio KBV1/KB” value in assay [2] (ratio of IC50 in KBV1 to IC50 in KB-3-1) is 4.3.

As to `CNC(C(=O)N[C@H](C(=O)N(C)[C@H](/C=C(\C)C(=O)O)C(C)C)C(C)(C)C)C1(c2ccccc2)CC1` (stereo in doubt) [Example 143, (2E,4S)-2,5-dimethyl-4-(methyl{3-methyl-N-[(2R)-2-(methylamino)-2-(1-phenylcyclopropyl)acetyl]-L-valyl}amino)hex-2-enoic Acid], in assay [1], the “Ratio KB85/KB” value stood at 2.1. For the same compound, the IC50 worked out at 57 nM in assay [1], 1660 nM in assay [2] (setting [4]) and 27 nM in assay [3] (setting [5]). Further, the “Ratio KBV1/KB” value in assay [2] is listed as 61.6.

Take `CN[C@@H](C(=O)N[C@H](C(=O)N(C)[C@H](/C=C(\C)C(=O)O)C(C)C)C(C)(C)C)C(C)(C)c1cc(C)cc(C)c1` [Example 18, N,β,β,3,5-Pentamethyl-D-phenylalanyl-N^1-[(1S,2E)-3-carboxy-1-isopropyl-2-butenyl]-N^1,3-dimethyl-L-valinamide]: the “Ratio KB85/KB” value in assay [1] came out at 2.4. Moreover, the IC50 was found to be 17.4 nM in assay [1], 575 nM in assay [2] (setting [4]) and 7.2 nM in assay [3] (setting [5]). For the same compound, the “Ratio KBV1/KB” value in assay [2] was determined as 79.9.

On to `CN[C@H](C(=O)N[C@H](C(=O)N(C)[C@H](/C=C(\C)C(=O)N[C@@H](CCSC)C(=O)O)C(C)C)C(C)(C)C)C(C)(C)c1ccccc1` [Example 145, N,β,β-trimethyl-L-phenylalanyl-N 1-((1S,2E)4-{[(1S)-1-carboxy-3-(methylthio)propyl]amino}-1-isopropyl-3-methyl-4-oxobut-2-enyl)-N 1,3-dimethyl-L-valinamide], for which, in assay [1], the “Ratio KB85/KB” value amounted to 12.2. For the same compound, the IC50 in assay [1] is 1600 nM; in assay [2] (setting [4]), over 3000 nM; in assay [3] (setting [5]), 131 nM. Also, the “Ratio KBV1/KB” value in assay [2] is on record as 22.9.

Turning to `CNC(C(=O)N[C@H](C(=O)N(C)[C@@H](/C=C(\C)C(=O)O)C(C)C)C(C)(C)C)C1(c2ccccc2)CCCCC1` (stereo partly drawn) [Example 73, (2E,4R)-2,5-dimethyl4-(methyl{3-methyl-N-[(methylamino)(1-phenylcyclohexyl)acetyl]-L-valyl}amino)-2-hexenoic Acid], the “Ratio KB85/KB” value in assay [1] turned out to be 1.8. Moreover, the IC50 in assay [1] was 363 nM; in assay [2] (setting [4]) it was at least 3000 nM; in assay [3] (setting [5]), 204 nM. In addition, the “Ratio KBV1/KB” value in assay [2] was found to be 14.7.

For the compound `CCOC(=O)/C(C)=C/[C@H](C(C)C)N(C)C(=O)[C@@H](NC(=O)[C@H](NC)C(C)(C)c1cc(C)cc(C)c1)C(C)(C)C` [Example 16b, N,β,β,3,5-pentamethyl-D-phenylalanyl-N^1-[(1S,2E)-4-ethoxy-1-isopropyl-3-methyl-4-oxo-2-butenyl]-N^1,3-dimethyl-L-valinamide], the “Ratio KB85/KB” value in assay [1] is 5.9. The IC50 was 1510 nM in assay [1], at least 3000 nM in assay [2] (setting [4]) and 257 nM in assay [3] (setting [5]). The “Ratio KBV1/KB” value in assay [2] was 11.7.

For the compound `CCCC/C(=C\[C@@H](NC(=O)[C@@H](NC(=O)[C@@H](NC)C(C)(C)c1ccccc1)C(C)(C)C)C(C)C)C(=O)O` [Example 77, (E,4S)-2-Butyl-4-[((2S)-3,3-dimethyl-2-{[(2S)-3-methyl-2-(methylamino)-3-phenylbutanoyl]amino}butanoyl)amino]-5-methyl-2-hexenoic Acid], the “Ratio KB85/KB” value in assay [1] was 3.0. Also, the IC50 in assay [1] is 1740 nM; in assay [2] (setting [4]), at least 3000 nM; in assay [3] (setting [5]) it was 575 nM. Besides, in assay [2], the “Ratio KBV1/KB” value is on record as 5.2.

Consider `CN[C@@H](C(=O)N[C@H](C(=O)N(C)[C@H](/C=C(\C)C(=O)O)C(C)C)C(C)(C)C)C(C)(C)c1ccc(Cl)cc1` [Example 6, 4-Chloro-N,β,β-trimethyl-D-phenylalanyl-N^1-[(1S,2E)-3-carboxy-1-isopropyl-2-butenyl]-N^1,3-dimethyl-L-valinamide], for which the “Ratio KB85/KB” value in assay [1] is 2.0. Moreover, the half-maximal inhibitory concentration (IC50) was found to be 17.4 nM in assay [1], 1380 nM in assay [2] (setting [4]) and 8.5 nM in assay [3] (setting [5]). For the same compound, in assay [2], the “Ratio KBV1/KB” value amounted to 162.4.

As to `C=CC(C)(C)[C@H](NC)C(=O)N[C@H](C(=O)N(C)[C@H](/C=C(\C)C(=O)O)C(C)C)C(C)(C)C` [Example 121, (2E, 4S)-4-[((2S)-2-{[3,3-dimethyl-2-(methylamino)-4-pentenoyl]amino}-3,3-dimethylbutanoyl)(methyl)amino]-2,5-dimethyl-2-hexenoic Acid], in assay [1], the “Ratio KB85/KB” value was 1.4. Also, the values for the IC50 in assay [1], in assay [2] (setting [4]) and in assay [3] (setting [5]) were 186 nM, at least 3000 nM and 136 nM, respectively. For the same compound, the “Ratio KBV1/KB” value in assay [2] is 22.0.

Take `CN[C@@H](C(=O)N[C@H](C(=O)N(C)[C@H](/C=C(\C)C(=O)O)C(C)C)C(C)(C)C)C(C)(C)Cc1ccccc1` [Example 49, N,3-dimethyl-4-phenyl-D-valyl-N^1-[(1S,2E)-3-carboxy-1-isopropyl-2-butenyl]-N^1,3-dimethyl-L-valinamide]: the “Ratio KB85/KB” value in assay [1] came out at 2.8. Also, the IC50 was found to be 55 nM in assay [1], 2000 nM in assay [2] (setting [4]) and 20 nM in assay [3] (setting [5]). Also, in assay [2], the “Ratio KBV1/KB” value stood at 99.8.

With `CN[C@H](C(=O)N[C@H](C(=O)N(C)[C@H](/C=C(\C)C(=O)OCc1cccs1)C(C)C)C(C)(C)C)C(C)(C)c1ccccc1` [Example 115, N,β,β-trimethyl-L-phenylalanyl-N^1-[(1S,2E)-1-isopropyl-3-methyl-4-oxo-4-(thien-2-ylmethoxy)but-2-enyl]-N^1,3-dimethyl-L-valinamide], the “Ratio KB85/KB” value in assay [1] is 46.2. Moreover, the values for the IC50 in assay [1], in assay [2] (read-out: In vitro IC50 KBV1) and in assay [3] (setting [5]) were 231 nM, over 3000 nM and 5 nM, respectively.

On to `CN[C@H](C(=O)N[C@H](C(=O)N(C)[C@H](/C=C(\C)C(=O)O)Cc1ccccc1)C(C)(C)C)C(C)(C)c1ccccc1` [Example 136, (E,4S)-4-[((2S)-3,3-dimethyl-2-{[(2S)-3-methyl-2-(methylamino)-3-phenylbutanoyl]amino}butanoyl)(methyl)amino]-2-methyl-5-phenyl-2-pentenoic Acid], for which the “Ratio KB85/KB” value in assay [1] is listed as 2.8. The IC50 was 1320 nM in assay [1], at least 3000 nM in assay [2] (setting [4]) and 479 nM in assay [3] (setting [5]). Also, in assay [2], the “Ratio KBV1/KB” value is 6.3.

On to `CNC(C(=O)NC(C)C(=O)N(C)C(C=C(C)C(=O)O)C(C)C)C(C)(C)c1ccccc1.O=C(O)C(F)(F)F` (stereo not drawn) [Example 103, 2,5-dimethyl-4-{methyl-[2-(3-methyl-2-methylamino-3-phenyl-butyrylamino)-propionyl]-amino}-hex-2-enoic Acid Trifluoroacetic Acid], for which the “Ratio KB85/KB” value in assay [1] is 13.3. For the same compound, the 50% inhibitory concentration (IC50) was determined as 2260 nM in assay [1], 2610 nM in assay [2] (setting [4]) and 170 nM in assay [3] (setting [5]). The “Ratio KBV1/KB” value in assay [2] is reported as 15.3.
